Experimental data from BindingDB's records for patent US20240116948 (Chiesi Farmaceutici, 2024).

target: T1, TGF-beta receptor type-1 (Homo sapiens, UniProt P36897); assay: In Vitro Assay
T1 sequence (P36897 whole entry): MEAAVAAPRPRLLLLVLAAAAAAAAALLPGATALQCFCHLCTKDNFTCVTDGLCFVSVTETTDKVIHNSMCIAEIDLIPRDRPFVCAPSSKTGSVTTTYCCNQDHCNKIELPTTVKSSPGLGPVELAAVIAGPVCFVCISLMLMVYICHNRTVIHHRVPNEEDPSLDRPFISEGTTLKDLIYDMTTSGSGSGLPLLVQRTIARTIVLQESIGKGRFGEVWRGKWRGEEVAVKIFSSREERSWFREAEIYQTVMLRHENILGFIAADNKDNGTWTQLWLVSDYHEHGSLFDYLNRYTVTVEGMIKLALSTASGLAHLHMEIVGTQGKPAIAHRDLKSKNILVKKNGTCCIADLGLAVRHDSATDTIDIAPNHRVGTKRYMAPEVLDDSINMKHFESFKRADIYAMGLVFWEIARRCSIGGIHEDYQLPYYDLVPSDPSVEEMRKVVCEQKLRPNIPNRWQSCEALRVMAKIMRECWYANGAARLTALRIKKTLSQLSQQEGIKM
Method: The enzymatic activity of compounds of the present invention was monitored measuring the formation of ADP using the ADP-GLO Kinases assay. Following the incubation of the purified enzyme, a substrate and ATP, the produced ADP was converted into ATP, which in turn was converted into light by Ultra-Glo Luciferase. The luminescent signal positively correlated with ADP amount and kinase activity. Briefly, the kinase reaction was performed by incubating 2.6 nM of the purified, commercially available human ALK5 (recombinant TGF 31 N-term GST-tagged, 80-end), a final concentration of TGFβ1 peptide 94.5 μM (Promega, T36-58) and ultra-pure ATP (Promega V915B). The ATP concentration was set at the Km value (concentration of substrate which permits the enzyme to achieve half maximal velocity (Vmax)) of ALK5 (5 μM). All reactions/incubations were performed at 25° C. Compound and ALK5 kinase were mixed and incubated for 15 mins. Reactions were initiated by addition of ATP at a final concentration in the assay of […]. After an incubation of 150 min, the reaction was stopped, and ADP production detected with ADP-Glo kit according to manufacturer's indications. The assay was performed in 384-well format and was validated using a selection of reference compounds that was tested in 11 point concentration-response curve.

Q: With `CN1CCC(Oc2cncc(-c3cc(-c4cc(Cl)ccc4F)nc4c3OCCN4)c2)CC1` [US20240116948, Example 41] as the molecule, how does the IC50 read?
A: < 1 nM

Q: How did the IC50 turn out when `CN(C)CCC(=O)Nc1cncc(-c2cc(-c3cc(Cl)ccc3F)nc3c2OCCN3)c1` [US20240116948, Example 8] was run?
A: < 1 nM

Q: With `CN(C)CCCOc1cncc(-c2cc(-c3cc(Cl)ccc3F)nc3c2OCCN3)c1` [US20240116948, Example 27] as the molecule, how does the IC50 read?
A: < 1 nM

Q: With `O=C(CCN1CCCC1)Nc1cncc(-c2cc(-c3cc(Cl)ccc3F)nc3c2OCCN3)c1` [US20240116948, Example 12] as the molecule, how does the IC50 read?
A: < 1 nM

Q: For `CN(CCO)CCC(=O)Nc1cncc(-c2cc(-c3cc(Cl)ccc3F)nc3c2OCCN3)c1` [US20240116948, Example 44], which IC50 is on record?
A: < 1 nM

Q: Which IC50 does the source give for `CNCCCC(=O)Nc1cncc(-c2cc(-c3cc(Cl)ccc3F)nc3c2OCCN3)c1` [US20240116948, Example 31] here?
A: < 1 nM
